Results taken from paper PMC10005332, “It Takes Two to Tango, Part II: Synthesis of A-Ring Functionalised Quinones Containing Two Redox-Active Centres with Antitumour Activities” (Molecules, 2023).
Where two headings read alike, the source gives them in different places.

Legend:
[1] = MTT cytotoxicity assay, L929 control line; assay type: cell-based, mouse; conditions: mouse, L929 fibroblast cells (non-tumoral control line), 72 h exposure, read-out: Cytotoxic activity IC50 (95% CI) L929
Method: (§1) In this study, the IC50 was obtained in micromolar concentrations, using the colourimetric MTT (3-(4,5-dimethylthiazol-2-yl)-2,5-diphenyl tetrazolium bromide)) assay, and doxorubicin was used as the positive control. […] The activity against the non-tumoural murine fibroblast cell line L929 was also evaluated in order to study the cytotoxicity behaviour of each compound and to understand their respective relative selectivity. The selectivity index was obtained using the ratio of measured cytotoxicity between the L929 cell line and each of the cancer cell lines, and the results are presented in Table 2.
(§2) The in vitro cytotoxicity activity of the compounds was evaluated by the colorimetric MTT (3-(4,5-dimethylthiazol-2-yl)-2,5-diphenyl tetrazolium bromide)) assay using the following tumor cell lines: HCT-116 (colon carcinoma), PC3 (prostate), SNB-19 (glioblastoma), K-562 (myelogenous leukaemia), HL-60 (human promyelocytic leukaemia), B16 (murine melanoma), A549 (human lung carcinoma), KG1 (human acute myeloid leukaemia), and RAJI (human Burkitt’s lymphoma), which were provided by the National Cancer Institute (Bethesda, MD, USA). The L929 cell line (mouse fibroblast L cells NCTC clone 929) employed in this study as a control cell line was obtained from the American Type Culture Collection (Manassas, VA, USA). The cell lines (Table S4) were maintained in flasks containing RPMI 1640 or DMEM medium supplemented with 10% bovive fetal sérum, 100 U/mL penicillin, and 100 μg/mL streptomycin at 37 °C and in 5% CO2 atmosphere. The compounds tested were dissolved in DMSO. Doxorubicin served as the positive control. Cell treatments were performed with three replicates and the cells were mycoplasma free. After 72 h incubation, 100 μL of MTT solution (0.5 mg/mL) was added to each well, and the cells were incubated for 3 h. The supernatant was removed and 100 μL of DMSO was added and the absorbance at 595 nm was measured using Victor Nivo Multimode plate reader (PerkinElmer, Waltham, MA, USA). The absorbances obtained were used to calculate the IC50 values by nonlinear regression employing appropriate statistical software.
(§3) The in vitro cytotoxicity activity of compounds was evaluated by the colorimetric MTT (3-(4,5-dimethylthiazol-2-yl)-2,5-diphenyl tetrazolium bromide)) assay using tumor cell lines: HCT-116 (colon carcinoma), PC3 (prostate), SNB-19 (glioblastoma), K-562 (myelogenous leukaemia), HL-60 (human promyelocytic leukaemia), B16 (murine melanoma), A549 (human lung carcinoma), KG1 (human acute myeloid leukaemia) and RAJI (human Burkitt's lymphoma), which were provided by the National Cancer Institute (Bethesda, MD, USA). The L929 cell line (mouse fibroblast L cells NCTC clone 929) employed in this study as a control cell line was obtained from the American Type Culture […]
(§4) Collection (Manassas, VA, USA). Cell lines (Table 01) were maintained in flasks containing RPMI 1640 or DMEM medium supplemented with 10% bovive fetal sérum, 100 U/mL penicillin, and 100 μg/mL streptomycin at 37 °C and 5% CO2 atmosphere.
(§5) Compounds tested were dissolved in DMSO. Doxorubicin served as positive control. Cell treatments were performed with three replicates and cells were mycoplasma-free. After 72 h incubation, 100 μL of MTT solution (0.5 mg/mL) was added to each well, and cells were incubated for 3 h. The supernatant was removed and 100 μL of DMSO was added and the absorbance at 595 nm was measured using Victor Nivo Multimode plate reader

[2] = test system: SNB-19 (human astrocytoma); assay: MTT cytotoxicity assay, SNB-19; assay type: cell-based; conditions: for IC50: Homo sapiens, SNB-19, MTT, 72 h exposure, three independent experiments, read-out: Cytotoxic activity IC50 (95% CI) SNB-19; for Selectivity index SNB-19: ratio of cytotoxicity L929 / SNB-19
Method: as §1, §2, §3, §4, §5

[3] = test system: A549 (human lung carcinoma); assay: MTT cytotoxicity assay, A549; assay type: cell-based; conditions: for IC50: Homo sapiens, A549, MTT, 72 h exposure, three independent experiments, read-out: Cytotoxic activity IC50 (95% CI) A549; for Selectivity index A549: ratio of cytotoxicity L929 / A549
Method: as §1, §2, §3, §4, §5

B16 (murine melanoma) = assay: MTT cytotoxicity assay, B16; assay type: cell-based; conditions: for IC50: Mus musculus, MTT, 72 h exposure, three independent experiments, read-out: Cytotoxic activity IC50 (95% CI) B16; for Selectivity index B16: ratio of cytotoxicity L929 / B16
Method: as §1, §2, §3, §4, §5

[4] = test system: RAJI (human Burkitt’s lymphoma); assay: MTT cytotoxicity assay, RAJI; assay type: cell-based; conditions: for IC50: MTT, 72 h exposure, three independent experiments, read-out: Cytotoxic activity IC50 (95% CI) RAJI; for Selectivity index RAJI: ratio of cytotoxicity L929 / RAJI
Method: as §1, §2, §3, §4, §5

[5] = test system: K-562 (human chronic myeloid leukaemia); assay: MTT cytotoxicity assay, K-562; assay type: cell-based; conditions: for IC50: Homo sapiens, K562, MTT, 72 h exposure, three independent experiments, read-out: Cytotoxic activity IC50 (95% CI) K-562; for Selectivity index K-562: ratio of cytotoxicity L929 / K-562
Method: as §1, §2, §3, §4, §5

[6] = test system: HL60 (human pro-myelocytic leukaemia); assay: MTT cytotoxicity assay, HL60; assay type: cell-based; conditions: for IC50: Homo sapiens, HL-60, 72 h, MTT, 72 h exposure, three independent experiments, read-out: Cytotoxic activity IC50 (95% CI) HL60; for Selectivity index HL60: ratio of cytotoxicity L929 / HL60
Method: as §1, §2, §3, §4, §5

[7] = test system: KG1 (human acute myeloid leukaemia); assay: MTT cytotoxicity assay, KG1; assay type: cell-based; conditions: for IC50: Homo sapiens, MTT, 72 h exposure, three independent experiments, read-out: Cytotoxic activity IC50 (95% CI) KG1; for Selectivity index KG1: ratio of cytotoxicity L929 / KG1
Method: as §1, §2, §3, §4, §5

[8] = test system: HCT-116 (human colorectal carcinoma); assay: MTT cytotoxicity assay, HCT-116; assay type: cell-based; conditions: for IC50: Homo sapiens, HCT-116, 72 h, MTT, 72 h exposure, three independent experiments, read-out: Cytotoxic activity IC50 (95% CI) HCT-116; for Selectivity index HCT-116: ratio of cytotoxicity L929 / HCT-116
Method: as §1, §2, §3, §4, §5

[9] = test system: PC3 (human prostate adenocarcinoma); assay: MTT cytotoxicity assay, PC3; assay type: cell-based; conditions: for IC50: Homo sapiens, MTT, 72 h exposure, three independent experiments, read-out: Cytotoxic activity IC50 (95% CI) PC3; for Selectivity index PC3: ratio of cytotoxicity L929 / PC3
Method: as §1, §2, §3, §4, §5

## CC1(C)OC2=C(CC1Cn1cc(CNC3=CC(=O)c4c(I)cccc4C3=O)nn1)C(=O)C(=O)c1ccccc12 (stereo not shown) [Compound 21a, 3-((4-(((5-iodo-1,4-dioxo-1,4-dihydronaphthalen-2-yl)amino)methyl)-1H-1,2,3-triazol-1-yl)methyl)-2,2-dimethyl-3,4-dihydro-2H-benzo[h]chromene-5,6-dione]
[1]
  IC50 at 72 h: 1.86 µM
[2]
  IC50: 2.93 µM
  Selectivity index SNB-19: 0.6
[3]
  IC50: 2.76 µM
  Selectivity index A549: 0.7
B16 (murine melanoma)
  IC50: 0.96 µM
  Selectivity index B16: 1.9
[4]; Homo sapiens, Raji, 72 h
  IC50: 5710 nM
[4]
  Selectivity index RAJI: 0.3
[5]
  IC50: 5.03 µM
  Selectivity index K-562: 0.4
[6]
  IC50: 1020 nM
  Selectivity index HL60: 1.8
[7]
  IC50: 4.2 µM
  Selectivity index KG1: 0.4
[8]
  IC50: 2690 nM
  Selectivity index HCT-116: 0.7
[9]
  IC50: 6.19 µM
  Selectivity index PC3: 0.3

## C#CCNC1=CC(=O)c2c(I)cccc2C1=O [Compound 18a, 5-iodo-2-(prop-2-yn-1-ylamino)naphthalene-1,4-dione]
[1]
  IC50 at 72 h: > 100 µM
[2]
  IC50: > 100 µM
[3]
  IC50: > 100 µM
B16 (murine melanoma)
  IC50: 48.5 µM
  Selectivity index B16: 2.1
[4]; Homo sapiens, Raji, 72 h
  IC50: > 100000 nM
[5]
  IC50: > 100 µM
[6]
  IC50: 38300 nM
  Selectivity index HL60: 2.6
[7]
  IC50: > 100 µM
[8]
  IC50: > 100000 nM
[9]
  IC50: > 100 µM

## C#CCNC1=CC(=O)c2cc3ccccc3cc2C1=O [Compound 18e, 2-(prop-2-yn-1-ylamino)anthracene-1,4-dione]
[1]
  IC50 at 72 h: > 100 µM
[2]
  IC50: > 100 µM
[3]
  IC50: > 100 µM
B16 (murine melanoma)
  IC50: > 100 µM
[4]; Homo sapiens, Raji, 72 h
  IC50: > 100000 nM
[5]
  IC50: > 100 µM
[6]
  IC50: > 100000 nM
[7]
  IC50: > 100 µM
[8]
  IC50: > 100000 nM
[9]
  IC50: > 100 µM

## CC1(C)OC2=C(C(=O)C(=O)c3ccccc32)C1N=[N+]=[N-] (stereo not shown) [Compound 4, 3-azido-2,2-dimethyl-2,3-dihydronaphtho[1,2-b]furan-4,5-dione]
[1]
  IC50 at 72 h: 2.74 µM
[2]
  IC50: 2.09 µM
  Selectivity index SNB-19: 1.3
[3]
  IC50: 3.65 µM
  Selectivity index A549: 0.8
B16 (murine melanoma)
  IC50: 1.77 µM
  Selectivity index B16: 1.5
[4]; Homo sapiens, Raji, 72 h
  IC50: 2460 nM
[4]
  Selectivity index RAJI: 1.1
[5]
  IC50: 1.42 µM
  Selectivity index K-562: 1.9
[6]
  IC50: 1080 nM
  Selectivity index HL60: 2.5
[7]
  IC50: 5.98 µM
  Selectivity index KG1: 0.5
[8]
  IC50: 1960 nM
  Selectivity index HCT-116: 1.4
[9]
  IC50: 5.93 µM
  Selectivity index PC3: 0.5

## COc1cccc2c1C(=O)C(NCc1cn(CC3CC4=C(OC3(C)C)c3ccccc3C(=O)C4=O)nn1)=CC2=O (stereo not shown) [Compound 21c, 3-((4-(((8-methoxy-1,4-dioxo-1,4-dihydronaphthalen-2-yl)amino)methyl)-1H-1,2,3-triazol-1-yl)methyl)-2,2-dimethyl-3,4-dihydro-2H-benzo[h]chromene-5,6-dione]
[1]
  IC50 at 72 h: 5.6 µM
[2]
  IC50: 4.92 µM
  Selectivity index SNB-19: 1.1
[3]
  IC50: 4.78 µM
  Selectivity index A549: 1.2
B16 (murine melanoma)
  IC50: 4.57 µM
  Selectivity index B16: 1.2
[4]; Homo sapiens, Raji, 72 h
  IC50: 1220 nM
[4]
  Selectivity index RAJI: 4.6
[5]
  IC50: 5.3 µM
  Selectivity index K-562: 1.1
[6]
  IC50: 2280 nM
  Selectivity index HL60: 2.5
[7]
  IC50: 1.32 µM
  Selectivity index KG1: 4.2
[8]
  IC50: 4850 nM
  Selectivity index HCT-116: 1.2
[9]
  IC50: 5.09 µM
  Selectivity index PC3: 1.1

## COc1cccc2c1C(=O)C(NCc1cn(C3C4=C(OC3(C)C)c3ccccc3C(=O)C4=O)nn1)=CC2=O (stereo not shown) [Compound 19c, 3-(4-(((8-methoxy-1,4-dioxo-1,4-dihydronaphthalen-2-yl)amino)methyl)-1H-1,2,3-triazol-1-yl)-2,2-dimethyl-2,3-dihydronaphtho[1,2-b]furan-4,5-dione]
[1]
  IC50 at 72 h: 9.17 µM
[2]
  IC50: 8.19 µM
  Selectivity index SNB-19: 1.1
[3]
  IC50: 3.06 µM
  Selectivity index A549: 3.0
B16 (murine melanoma)
  IC50: 1.74 µM
  Selectivity index B16: 5.3
[4]; Homo sapiens, Raji, 72 h
  IC50: 900 nM
[4]
  IC50: 930 nM
  Selectivity index RAJI: 9.9
[5]
  IC50: 3.06 µM
  Selectivity index K-562: 3.0
[6]
  IC50: 1070 nM
  Selectivity index HL60: 8.6
[7]
  IC50: 4.77 µM
  Selectivity index KG1: 1.9
[8]
  IC50: 1600 nM
  Selectivity index HCT-116: 5.7
[9]
  IC50: 3.5 µM
  Selectivity index PC3: 2.6

## CC1(C)OC2=C(C(=O)C(=O)c3ccccc32)C1n1cc(CNC2=CC(=O)c3cc4ccccc4cc3C2=O)nn1 (stereo not shown) [Compound 19e, 3-(4-(((1,4-dioxo-1,4-dihydroanthracen-2-yl)amino)methyl)-1H-1,2,3-triazol-1-yl)-2,2-dimethyl-2,3-dihydronaphtho[1,2-b]furan-4,5-dione]
[1]
  IC50 at 72 h: 4.83 µM
[2]
  IC50: 3.52 µM
  Selectivity index SNB-19: 1.4
[3]
  IC50: 6.14 µM
  Selectivity index A549: 0.8
B16 (murine melanoma)
  IC50: 3.97 µM
  Selectivity index B16: 1.2
[4]; Homo sapiens, Raji, 72 h
  IC50: 1690 nM
[4]
  Selectivity index RAJI: 2.9
[5]
  IC50: 8.13 µM
  Selectivity index K-562: 0.6
[6]
  IC50: 860 nM
  Selectivity index HL60: 5.6
[7]
  IC50: 4.77 µM
  Selectivity index KG1: 1.0
[8]
  IC50: 2630 nM
  Selectivity index HCT-116: 1.8
[9]
  IC50: 3.48 µM
  Selectivity index PC3: 1.4

## C#CCNC1=CC(=O)c2cccc(OCc3ccccc3)c2C1=O [Compound 18d, 8-benzyloxy-2-(prop-2-yn-1-ylamino)naphthalene-1,4-dione]
[1]
  IC50 at 72 h: > 100 µM
[2]
  IC50: > 100 µM
[3]
  IC50: > 100 µM
B16 (murine melanoma)
  IC50: 35.5 µM
  Selectivity index B16: 2.8
[4]; Homo sapiens, Raji, 72 h
  IC50: > 100000 nM
[5]
  IC50: > 100 µM
[6]
  IC50: 32000 nM
  Selectivity index HL60: 3.1
[7]
  IC50: > 100 µM
[8]
  IC50: > 100000 nM
[9]
  IC50: > 100 µM
